Experimental data reported in ChEMBL document CHEMBL5385863, “Targeting the phosphoserine phosphatase MtSerB2 for tuberculosis drug discovery, an hybrid knowledge based /fragment based approach” (Eur J Med Chem, 2023).
The source made the active and inactive calls. The calls are words filed in the database; no cut-off is given here.

Columns and labels:
[1] = target: Phosphoserine phosphatase SerB2 (Mycobacterium tuberculosis) (UniProt O53289); experiment: Binding affinity to Mycobacterium tuberculosis SerB2 expressed in Escherichia coli BL21 (DE3) cells assessed as protein destabilization at 4 mM by differential scanning fluorimetry
[2] = target: Phosphoserine phosphatase SerB2 (Mycobacterium tuberculosis) (UniProt O53289); experiment: Binding affinity to Mycobacterium tuberculosis SerB2 expressed in Escherichia coli BL21 (DE3) cells assessed as change in melting temperature at 4 mM by differential scanning fluorimetry
[3] = target: Phosphoserine phosphatase SerB2 (Mycobacterium tuberculosis) (UniProt O53289); experiment: Inhibition of Mycobacterium tuberculosis SerB2 expressed in Escherichia coli BL21 at 1 mM incubated for 10 mins by malachite green dye based phosphatase assay
[4] = target: Phosphoserine phosphatase SerB2 (Mycobacterium tuberculosis) (UniProt O53289); experiment: Inhibition of Mycobacterium tuberculosis SerB2 expressed in Escherichia coli BL21 at 1 mM incubated for 10 mins by malachite green dye based phosphatase assay relative to control

Chain of Phosphoserine phosphatase SerB2 (Mycobacterium tuberculosis) (O53289 whole entry): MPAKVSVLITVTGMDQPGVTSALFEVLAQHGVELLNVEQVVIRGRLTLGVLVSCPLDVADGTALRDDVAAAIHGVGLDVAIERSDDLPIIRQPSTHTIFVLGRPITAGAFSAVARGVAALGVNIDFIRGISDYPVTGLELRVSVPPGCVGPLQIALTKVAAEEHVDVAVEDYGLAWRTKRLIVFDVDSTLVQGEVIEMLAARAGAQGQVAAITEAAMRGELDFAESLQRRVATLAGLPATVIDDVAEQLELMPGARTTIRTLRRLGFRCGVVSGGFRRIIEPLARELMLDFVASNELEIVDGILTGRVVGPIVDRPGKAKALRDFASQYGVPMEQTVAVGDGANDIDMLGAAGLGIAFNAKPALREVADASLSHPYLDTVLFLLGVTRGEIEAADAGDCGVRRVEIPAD

Cc1cc(C2CCCCC2)n(O)c(=O)c1
Activity [1]: Active
ΔTm [2]: > 0.5 °C

c1c[nH]cn1
inhibition [3]: Active

Nc1ccncc1
Activity [1]: Active
ΔTm [2]: > 0.5 °C

O=P(O)(O)C(O)(Cn1ccnc1)P(=O)(O)O
Activity [1]: Active
inhibition [4]: > 50%
ΔTm [2]: > 0.5 °C

Nc1ccc(C(=O)O)c(O)c1
inhibition [3]: Active

Nc1ccc(O)cc1
Activity [1]: inactive
inhibition [4]: > 50%
ΔTm [2]: > 0.5 °C

O=C(O)c1cc(O)ccn1
Activity [1]: Active
inhibition [4]: > 50%
ΔTm [2]: > 0.5 °C

N[C@@H](CCS(=O)(=O)O)C(=O)O
Activity [1]: Active
ΔTm [2]: > 0.5 °C

O=C(NO)Nc1ccc(Cl)cc1Cl
Activity [1]: Active
inhibition [4]: > 50%
ΔTm [2]: > 0.5 °C

CCC(N)P(=O)(O)O (configuration not stated)
inhibition [3]: Active

NCCCP(=O)(O)O
inhibition [3]: Active

NC(=O)NO
Activity [1]: Active
inhibition [3]: Active
ΔTm [2]: > 0.5 °C

c1ccc(-c2c[nH]cn2)cc1
Activity [1]: Active
ΔTm [2]: > 0.5 °C
